From patent US9045524B2, “Selective caspase inhibitors and uses thereof” (NOVAGENESIS FOUNDATION, priority 2009, dated 2015)
pIC50: −log10 of the molar value. Where two headings read alike, the source gives them in different places. Peptide text beside a SMILES is read from it. * marks the point of attachment. Cbz = O=C(OCc1ccccc1)*; CH2F = FC*

Assays:
Caspase-5 = Caspase-5 (Homo sapiens (Human), UniProt P51878); test: Fluorometric enzymatic assay, active recombinant Caspase-5; type: biochemical; conditions: for IC50: 10-point titration 0.1 nM to 3.3 μM, 30-minute incubation at 37° C., read-out: IC50 values (μM) Caspase-5
Caspase-5, sequence (P51878 whole entry, looked up): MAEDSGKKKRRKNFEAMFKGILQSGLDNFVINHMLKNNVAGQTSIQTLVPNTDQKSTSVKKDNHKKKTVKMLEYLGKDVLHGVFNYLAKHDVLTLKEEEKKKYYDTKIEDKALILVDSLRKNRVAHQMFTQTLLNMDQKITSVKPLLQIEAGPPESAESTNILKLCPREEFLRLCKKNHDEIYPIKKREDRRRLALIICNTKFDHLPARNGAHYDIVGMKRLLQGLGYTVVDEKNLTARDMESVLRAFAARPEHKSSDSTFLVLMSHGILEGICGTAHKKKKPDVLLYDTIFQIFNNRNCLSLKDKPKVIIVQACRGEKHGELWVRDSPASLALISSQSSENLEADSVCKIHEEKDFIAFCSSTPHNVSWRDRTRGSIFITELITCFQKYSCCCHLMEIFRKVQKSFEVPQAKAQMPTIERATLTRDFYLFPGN
Caspase-5, sequence (P51878 whole entry, looked up): as above
Description: (§1) . In brief, each compound was serially diluted for a final test concentration range of 0.1 nM to 3.3 μM (10-point titration). Each active recombinant Caspase (Active Recombinant Caspase Set IV™ (BioVision, Cat# K233-10-25)) was added to the respective wells of the 96-well High Efficiency™ plates (Molecular Devices, Cat#75-000-0005), followed by the addition of the diluted test compounds. DMSO (Final=1%) or Z-VAD-FMK (Caspase-Family Inhibitor, Z-VAD-FMK (BioVision, Cat#1010-100), Final concentration=20 uM) was added in the designated wells as a background control or positive inhibitor control respectively. Each dilution of the test compounds was tested in duplicates, whereas the DMSO or Z-VAD-FMK controls were tested in triplicates. The synthetic peptide substrate specific for each Caspase (BioVision) was then added to the respective wells, which when cleaved by the active caspase releases free AFC that can be quantified by fluorometry. After a 30-minute incubation at 37° C., the plates were read using the Flexstation 3™ with a 400 nm excitation filter and a 505 nm emission filter (cutoff at 495 nm). The inhibition efficiency and the IC50 values of the test compounds were then determined by comparing the fluorescence intensity (FI) of the test compounds with that of the DMSO control.
(§2) The SoftMax Pro Software™ (v5.2 rev C, Molecular Devices) was used for data analysis. The % Inhibition is calculated by: % Inhibition=[FI(DMSO)−FI(test sample)/FI(DMSO)]×100. The % Inhibition vs. Log(concentration) was plotted, and the curve was fitted using the 5-parameter fit of the software.

Caspase-6 = Caspase-6 (Homo sapiens (Human), UniProt P55212); test: Fluorometric enzymatic assay, active recombinant Caspase-6; type: biochemical; conditions: for IC50: 10-point titration 0.1 nM to 3.3 μM, 30-minute incubation at 37° C., read-out: IC50 values (μM) Caspase-6
Caspase-6, sequence (P55212 24-179): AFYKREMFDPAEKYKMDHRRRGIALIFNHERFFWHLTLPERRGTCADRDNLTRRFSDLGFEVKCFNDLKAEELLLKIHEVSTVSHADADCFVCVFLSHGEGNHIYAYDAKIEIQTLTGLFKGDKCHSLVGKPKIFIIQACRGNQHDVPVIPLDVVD
Caspase-6, sequence (P55212 194-293): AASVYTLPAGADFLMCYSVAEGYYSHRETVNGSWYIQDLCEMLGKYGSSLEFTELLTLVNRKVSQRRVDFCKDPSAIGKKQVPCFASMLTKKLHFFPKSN
Description: as §1, §2

EAE in C57BL/6 mice = test: Chronic EAE mouse model (MOG35-55 immunization), daily clinical score and body weight; type: in vivo; parameters: key to Delay in onset of the disease / Reduction in severity of the disease / Reduction in body weight loss: +++: high level improvement; ++: moderate improvement; +: small improvement; −: no improvement; conditions: for Delay in onset of the disease / Reduction in body weight loss / Reduction in severity of the disease: average overall effects on the EAE model, i.p.
Excerpt: The aim of this study was to verify the effectiveness of compounds in a chronic mouse animal model of EAE. EAE is a good proof-of-principle model of neurodegeneration since it encompasses degeneration or destruction of practically all the cells in the central nervous system, includes most major immunomodulatory components, and is able to maintain normal innate regenerative functions in the animal. This is a standard model (Antel J P et al., J Neurosci Res. 1997, 50: 345-353) used mainly to mimic the course evolution of Multiple Sclerosis (MS) in humans, and is commonly used for studying disease mechanisms and testing potential therapies. EAE is induced by immunization with myelin proteins, leading to development of myelin-specific T cells. These autoreactive T cells traffic into CNS parenchyma where they initiate an inflammatory cascade through recruitment of other cells such as monocytes and neutrophils. Accumulation of immune cells within CNS leads to myelin damage, axonal loss and clinical deficit in affected animals. EAE can be induced in a variety of species and strains of animals [mice, Rat, marmoset monkey, rhesus macaques] using various CNS antigens [Myelin Oligodendrocyte Glycoprotein (MOG), proteolipid protein (PLP) and myelin basic protein (MBP)]. Seven to 8 week old female C57BL/6 mice were purchased from Charles River Laboratories, and housed at MISPRO™ animal facility for one week before experimentation for adaptation to the new environment. All proper animal experimentation and ethics approvals were obtained prior to the start of any experiments. Mice were immunized subcutaneously with 100 μg of MOG35-55 (Sheldon Biotechnology Centre, McGill University) in CFA containing 5 mg/ml of desiccated (killed and dried) Mycobacterium tuberculosis H37Ra (Difco, Inc), at two sites on the back. The mice were then injected with 200 ng of pertussis toxin (List Biological Laboratories, Inc) in PBS intraperitoneally on days 0 and 2 using 25 gauge needles and scored daily using an EAE clinical scale as detailed below (Touil T et al., J Neurol Sci. 2008, 271:191-202; Antel J P et al., 1997, supra; Owens T et al., Curr Pharm Des. 2005, 1:1031-1037).
EAE was clinically assessed throughout the experiments by daily scoring using a scale from 0 to 5 as follows: partial limp tail, 0.5; full limp tail, 1; limp tail and waddling gait, 1.5; paralysis of one hind limb, 2; paralysis of one hind limb and partial paralysis of other hind limb, 2.5; paralysis of both hind limbs, 3; ascending paralysis, 3.5; paralysis of trunk, 4; moribund, 4.5; death, 5. In all the EAE models a body weight loss is always associated with the clinical signs. This body weight loss is associated with the loss of the function and the paralysis of the muscle (atrophy inducing loss of weight). For animals showing a clinical sign of 2 or more, the food and the water were presented inside the cage to facilitate eating and drinking.
At the onset of clinical signs of EAE, the mice were treated with 200 μl of Compound 51, 53, 57, 59, 101, 104, 105, 111 or 123 dissolved in 2.5% Dimethyl sulfoxide (DMSO) in PBS, while placebo groups were treated with 2.5% Dimethyl sulfoxide (DMSO) in PBS only, by intraperitoneal injection at different time of the clinical evolution.

Caspase-1 = Caspase-1 (Homo sapiens (Human), UniProt P29466); test: Fluorometric enzymatic assay, active recombinant Caspase-1; conditions: for IC50: read-out: IC50 values (μM) Caspase-1, 10-point titration 0.1 nM to 3.3 μM, 30-minute incubation at 37° C.
Caspase-1, sequence (P29466 whole entry, looked up): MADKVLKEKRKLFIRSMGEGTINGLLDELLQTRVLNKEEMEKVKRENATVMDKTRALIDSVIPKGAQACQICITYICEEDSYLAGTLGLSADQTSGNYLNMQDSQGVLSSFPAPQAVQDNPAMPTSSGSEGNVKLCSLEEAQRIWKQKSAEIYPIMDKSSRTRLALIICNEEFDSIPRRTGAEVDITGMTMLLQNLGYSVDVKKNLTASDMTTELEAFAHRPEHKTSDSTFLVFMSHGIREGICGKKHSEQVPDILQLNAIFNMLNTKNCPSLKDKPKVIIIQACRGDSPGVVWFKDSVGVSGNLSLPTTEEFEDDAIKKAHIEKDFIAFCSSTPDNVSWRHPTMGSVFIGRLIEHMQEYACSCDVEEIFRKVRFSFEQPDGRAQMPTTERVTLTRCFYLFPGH
Caspase-1, sequence (P29466 whole entry, looked up): as above
Description: (§3) Each dilution of the test compounds was tested in duplicates, whereas the DMSO or Z-VAD-FMK controls were tested in triplicates. […] The inhibition efficiency and the IC50 values of the test compounds were then determined by comparing the fluorescence intensity (FI) of the test compounds with that of the DMSO control.

Caspase-9 = Caspase-9 (Homo sapiens (Human), UniProt P55211); test: Fluorometric enzymatic assay, active recombinant Caspase-9; conditions: for IC50: read-out: IC50 values (μM) Caspase-9, 10-point titration 0.1 nM to 3.3 μM, 30-minute incubation at 37° C.; for inhibitory activity towards Caspase-9: FIG. 5
Caspase-9, sequence (P55211 whole entry, looked up, change not shown): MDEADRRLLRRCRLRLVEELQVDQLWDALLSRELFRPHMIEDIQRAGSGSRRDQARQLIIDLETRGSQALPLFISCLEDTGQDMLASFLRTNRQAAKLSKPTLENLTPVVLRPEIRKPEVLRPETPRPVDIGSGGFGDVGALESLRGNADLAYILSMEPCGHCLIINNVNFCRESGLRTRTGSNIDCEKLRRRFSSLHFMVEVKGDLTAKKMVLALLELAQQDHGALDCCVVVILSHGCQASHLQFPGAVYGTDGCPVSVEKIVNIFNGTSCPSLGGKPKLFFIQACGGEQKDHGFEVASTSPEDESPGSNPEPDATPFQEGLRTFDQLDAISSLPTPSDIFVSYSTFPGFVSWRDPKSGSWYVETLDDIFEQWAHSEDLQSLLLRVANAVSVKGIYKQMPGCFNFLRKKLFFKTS
Caspase-9, sequence (P55211 whole entry, looked up, change not shown): as above
Description: as §3

Caspase-3 = Caspase-3 (Homo sapiens (Human), UniProt P42574); test: Fluorometric enzymatic assay, active recombinant Caspase-3; conditions: for inhibitory activity towards Caspase-3: FIG. 5; for IC50: read-out: IC50 values (μM) Caspase-3, 10-point titration 0.1 nM to 3.3 μM, 30-minute incubation at 37° C.
Caspase-3, sequence (P42574 29-175): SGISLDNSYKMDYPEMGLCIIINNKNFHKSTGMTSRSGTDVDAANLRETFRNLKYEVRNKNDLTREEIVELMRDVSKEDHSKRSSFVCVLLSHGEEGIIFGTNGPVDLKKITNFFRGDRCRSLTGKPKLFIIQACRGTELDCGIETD
Caspase-3, sequence (P42574 176-277): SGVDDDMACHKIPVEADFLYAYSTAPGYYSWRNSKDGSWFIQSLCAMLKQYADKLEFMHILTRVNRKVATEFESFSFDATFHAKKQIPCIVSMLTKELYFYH
Description: as §3

Caspase-10 = Caspase-10 (Homo sapiens (Human), UniProt Q92851); test: Fluorometric enzymatic assay, active recombinant Caspase-10; conditions: for IC50: read-out: IC50 values (μM) Caspase-10, 10-point titration 0.1 nM to 3.3 μM, 30-minute incubation at 37° C.; for inhibitory activity towards Caspase-10: FIG. 5
Caspase-10, sequence (Q92851 220-415): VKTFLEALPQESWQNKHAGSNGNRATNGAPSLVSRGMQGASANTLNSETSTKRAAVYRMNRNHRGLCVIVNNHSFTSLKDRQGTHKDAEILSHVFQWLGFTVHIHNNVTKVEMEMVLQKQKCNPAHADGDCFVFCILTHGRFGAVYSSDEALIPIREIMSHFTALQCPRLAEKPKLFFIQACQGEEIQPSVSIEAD
Caspase-10, sequence (Q92851 416-521): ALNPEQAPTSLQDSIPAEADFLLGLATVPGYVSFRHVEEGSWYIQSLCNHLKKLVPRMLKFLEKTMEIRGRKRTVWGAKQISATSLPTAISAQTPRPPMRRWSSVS
Description: as §3

Caspase-4 = Caspase-4 (Homo sapiens (Human), UniProt P49662); test: Fluorometric enzymatic assay, active recombinant Caspase-4; conditions: for IC50: read-out: IC50 values (μM) Caspase-4, 10-point titration 0.1 nM to 3.3 μM, 30-minute incubation at 37° C.
Caspase-4, sequence (P49662 81-270): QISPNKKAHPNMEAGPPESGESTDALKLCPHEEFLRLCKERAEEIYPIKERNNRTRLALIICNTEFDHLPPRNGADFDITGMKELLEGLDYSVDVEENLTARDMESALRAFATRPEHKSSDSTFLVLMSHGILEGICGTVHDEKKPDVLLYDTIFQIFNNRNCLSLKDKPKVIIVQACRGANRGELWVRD
Caspase-4, sequence (P49662 290-377): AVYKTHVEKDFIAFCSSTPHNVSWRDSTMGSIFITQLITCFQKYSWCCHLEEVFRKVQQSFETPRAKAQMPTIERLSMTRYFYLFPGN
Description: as §3

Caspase-7 = Caspase-7 (Homo sapiens (Human), UniProt P55210); test: Fluorometric enzymatic assay, active recombinant Caspase-7; conditions: for IC50: read-out: IC50 values (μM) Caspase-7, 10-point titration 0.1 nM to 3.3 μM, 30-minute incubation at 37° C.
Caspase-7, sequence (P55210 whole entry, looked up): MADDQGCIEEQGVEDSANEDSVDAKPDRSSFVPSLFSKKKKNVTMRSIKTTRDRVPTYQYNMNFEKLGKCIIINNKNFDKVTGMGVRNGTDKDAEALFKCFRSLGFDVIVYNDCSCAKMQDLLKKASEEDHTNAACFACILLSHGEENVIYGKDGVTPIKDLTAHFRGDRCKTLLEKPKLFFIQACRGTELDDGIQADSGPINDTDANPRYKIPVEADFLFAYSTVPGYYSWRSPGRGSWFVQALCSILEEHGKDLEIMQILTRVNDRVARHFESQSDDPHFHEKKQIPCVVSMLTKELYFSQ
Caspase-7, sequence (P55210 whole entry, looked up): as above
Description: as §3

Caspase-8 = Caspase-8 (Homo sapiens (Human), UniProt Q14790); test: Fluorometric enzymatic assay, active recombinant Caspase-8; type: biochemical; conditions: for IC50: 10-point titration 0.1 nM to 3.3 μM, 30-minute incubation at 37° C., read-out: IC50 values (μM) Caspase-8
Caspase-8, sequence (Q14790 217-374): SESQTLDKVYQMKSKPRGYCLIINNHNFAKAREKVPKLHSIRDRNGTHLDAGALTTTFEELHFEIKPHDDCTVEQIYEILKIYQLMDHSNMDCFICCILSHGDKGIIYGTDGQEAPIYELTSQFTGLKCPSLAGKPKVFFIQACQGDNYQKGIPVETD
Caspase-8, sequence (Q14790 385-479): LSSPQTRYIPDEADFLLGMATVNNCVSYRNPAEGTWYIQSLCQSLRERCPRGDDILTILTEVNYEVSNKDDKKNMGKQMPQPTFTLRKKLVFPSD
Description: as §1, §2

Caspase-2 = Caspase-2 (Homo sapiens (Human), UniProt P42575); test: Fluorometric enzymatic assay, active recombinant Caspase-2; type: biochemical; conditions: for IC50: 10-point titration 0.1 nM to 3.3 μM, 30-minute incubation at 37° C., read-out: IC50 values (μM) Caspase-2
Caspase-2, sequence (P42575 170-325): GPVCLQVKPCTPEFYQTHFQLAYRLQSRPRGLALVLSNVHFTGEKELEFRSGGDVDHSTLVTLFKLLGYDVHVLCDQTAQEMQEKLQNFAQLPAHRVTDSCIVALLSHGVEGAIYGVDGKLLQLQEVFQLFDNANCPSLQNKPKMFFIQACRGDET
Caspase-2, sequence (P42575 348-452): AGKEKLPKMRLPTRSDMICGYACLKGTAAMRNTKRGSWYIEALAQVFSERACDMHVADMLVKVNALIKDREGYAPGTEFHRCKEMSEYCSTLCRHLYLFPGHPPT
Description: as §1, §2

Caspase-1 to -10 = test: Fluorometric caspase enzymatic assays, positive inhibitor control (all experiments); type: biochemical; conditions: Final concentration=20 uM
Description: as §1, with “In” for “. In”, “control. […]” for “control.”

[1] = FIG. 3, i.p. from day 14 to 19 post immunization, versus placebo

Compound | IC50 (Caspase-5) [µM] | IC50 (Caspase-6) [µM] | effects on the clinical course of EAE (EAE in C57BL/6 mice; [1]) | Delay in onset of the disease (EAE in C57BL/6 mice) | Reduction in body weight loss (EAE in C57BL/6 mice) | Reduction in severity of the disease (EAE in C57BL/6 mice) | IC50 (Caspase-1) [µM] | IC50 (Caspase-9) [µM] | inhibitory activity towards Caspase-3 (Caspase-3) | IC50 (Caspase-3) [µM] | IC50 (Caspase-10) [µM] | IC50 (Caspase-4) [µM] | IC50 (Caspase-7) [µM] | IC50 (Caspase-8) [µM] | IC50 (Caspase-2) [µM] | inhibitory activity towards Caspase-9 (Caspase-9) | inhibitory activity towards Caspase-10 (Caspase-10) | further results
CC(C)[C@H](NC(=O)[C@H](Cc1cccc2ccccc12)NC(=O)[C@H](CC(=O)O)NC(=O)OCc1ccccc1)C(=O)N[C@H](/C=C/S(C)(=O)=O)CC(=O)O [Compound 111, Z-Asp-3-(1-naphtyl)-L-alanine-Val-Aspmethyl vinyl sulfone] | > 3.33 | > 3.33 | ameliorating effects | + | ++ | ++ | > 3.33 | > 3.33 | high inhibitory activity | 0.08 | > 3.33 | > 3.33 | > 3.33 | > 3.33 | > 3.33 | – | – | –
COC(=O)CC[C@H](NC(=O)[C@H](CC(=O)OC)NC(=O)OCc1ccccc1)C(=O)N[C@H](C(=O)N[C@@H](CC(=O)OC)C(=O)CF)C(C)C [Z-DEVD-FMK, z-D(OMe)E(OMe)VD(OMe)FMK, reference compound] | – | – | – | – | – | – | – | – | – | – | – | – | – | – | – | inhibitory activity | inhibitory activity | pIC50 (Caspase-5): < 5.48; inhibitory activity towards Caspase-5 (Caspase-5; FIG. 5): negligible; pIC50 (Caspase-6): < 5.48; inhibitory activity towards Caspase-6 (Caspase-6; FIG. 5): negligible; pIC50 (Caspase-1): 6.15; inhibitory activity towards Caspase-1 (Caspase-1; FIG. 5): inhibitory activity; pIC50 (Caspase-10): 5.57; pIC50 (Caspase-4): 5.60; inhibitory activity towards Caspase-4 (Caspase-4; FIG. 5): inhibitory activity; pIC50 (Caspase-7): < 5.48; pIC50 (Caspase-8): 5.80; inhibitory activity towards Caspase-8 (Caspase-8; FIG. 5): inhibitory activity; pIC50 (Caspase-2): < 5.48; inhibitory activity towards Caspase-2 (Caspase-2; FIG. 5): negligible
COC(=O)C[C@H](NC(=O)[C@H](C)NC(=O)[C@@H](NC(=O)OCc1ccccc1)C(C)C)C(=O)CF [Z-VAD-FMK, benzyloxycarbonyl-Val-Ala-Asp-fluoromethylketone] (Cbz-Val-Ala-Asp(OMe)-CH2F) | – | – | – | – | – | – | – | – | – | – | – | – | – | – | – | – | – | inhibition by positive inhibitor control (Caspase-1 to -10): > 50%
CC(C)[C@H](NC(=O)[C@@H](NC(=O)[C@H](CC(=O)O)NC(=O)OCc1ccccc1)c1ccccc1)C(=O)N[C@H](/C=C(\Cl)S(C)(=O)=O)CC(=O)O [Compound 123, Z-Asp-phenylglycine-Val-Asp-achlorovinyl methylsulfone] | > 3.33 | > 3.33 | ameliorating effects | + | +++ | ++ | > 3.33 | 2.8 | high inhibitory activity | 0.06 | 2 | > 3.33 | 0.5 | > 3.33 | > 3.33 | inhibitory activity | inhibitory activity | Loss of body weight (EAE in C57BL/6 mice; [1]): less than in the placebo group; inhibitory activity towards Caspase-7 (Caspase-7; FIG. 5): high inhibitory activity
